In data set [1] the target is Acetylcholine receptor proteins (AchR) (Homo sapiens, UniProt P02708). Type of data set: binding. Conditions: for AchR binding affinity (resonance units: Ru) among representative peptides: peptides 3 μM. On the procedure: Spep-1 to Spep-11 selected in Example 1 were synthesized, and the AchR binding affinity was compared thereamong using a surface plasmon resonance (SPR) analyzer (Biacore3000, Biacore A, Sweden). […]
The treatment concentrations of Spep-2 were 0.12 to 1 μM, and the dissociation constant was compared while Synake was used as a positive control.

The target of data set [2] is T1, AchR (Homo sapiens, UniProt P02708). The experiment in a line: ELISA of screened peptide phages on AchR versus streptavidin (OD450). Conditions: absorbance at 450 nm. The data set is classed as binding. In outline: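 Reported as the ratio of AchR to streptavidin OD450, with TMB read-out after HRP anti-M13 detection. Wells coated with 5 μg/ml target overnight at 4 °C and BSA-blocked, then incubated 1 h at 30 °C with helper-rescued phage from individual plaques.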
On the technique in general: An ELISA detects its analyte on a solid surface through an enzyme-linked reagent.
Target sequence in this assay (P02708 21-457): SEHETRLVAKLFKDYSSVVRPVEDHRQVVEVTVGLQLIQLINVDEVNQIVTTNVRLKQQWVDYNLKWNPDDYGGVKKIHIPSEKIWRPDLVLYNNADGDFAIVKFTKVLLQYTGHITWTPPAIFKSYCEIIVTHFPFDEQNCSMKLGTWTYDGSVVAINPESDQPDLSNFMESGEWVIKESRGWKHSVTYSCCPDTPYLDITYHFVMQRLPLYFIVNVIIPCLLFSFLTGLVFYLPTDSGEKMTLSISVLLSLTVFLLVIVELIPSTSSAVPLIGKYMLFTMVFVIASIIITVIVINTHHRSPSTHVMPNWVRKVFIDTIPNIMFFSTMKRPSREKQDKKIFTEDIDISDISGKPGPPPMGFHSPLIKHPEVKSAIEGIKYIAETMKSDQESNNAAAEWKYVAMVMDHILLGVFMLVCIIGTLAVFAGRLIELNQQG

For data set [3], the target named is T1, AchR. Nature of the data set: cell-based. Type of data set: cell-based. More on the design: endogenous in cells; host or cells: TE671. Conditions: for AchR inhibitory effect: acetylcholine treatment.
Target sequence in this assay (P02708 21-457): as above
Target sequence in this assay (Q07001 22-517, further chain): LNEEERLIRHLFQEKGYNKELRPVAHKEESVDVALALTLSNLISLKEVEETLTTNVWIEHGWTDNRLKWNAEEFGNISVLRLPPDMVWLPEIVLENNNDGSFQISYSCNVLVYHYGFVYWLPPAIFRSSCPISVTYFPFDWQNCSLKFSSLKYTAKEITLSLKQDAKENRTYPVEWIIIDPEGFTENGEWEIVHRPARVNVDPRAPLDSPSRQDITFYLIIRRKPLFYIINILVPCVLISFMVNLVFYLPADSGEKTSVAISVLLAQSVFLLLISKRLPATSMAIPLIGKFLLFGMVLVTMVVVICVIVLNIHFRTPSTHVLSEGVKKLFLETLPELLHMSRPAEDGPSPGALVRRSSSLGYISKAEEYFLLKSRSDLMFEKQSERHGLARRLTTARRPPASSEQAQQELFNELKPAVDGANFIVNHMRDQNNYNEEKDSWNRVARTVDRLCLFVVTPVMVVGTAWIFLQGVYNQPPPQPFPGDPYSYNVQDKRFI
Target sequence in this assay (P07510 23-517, further chain): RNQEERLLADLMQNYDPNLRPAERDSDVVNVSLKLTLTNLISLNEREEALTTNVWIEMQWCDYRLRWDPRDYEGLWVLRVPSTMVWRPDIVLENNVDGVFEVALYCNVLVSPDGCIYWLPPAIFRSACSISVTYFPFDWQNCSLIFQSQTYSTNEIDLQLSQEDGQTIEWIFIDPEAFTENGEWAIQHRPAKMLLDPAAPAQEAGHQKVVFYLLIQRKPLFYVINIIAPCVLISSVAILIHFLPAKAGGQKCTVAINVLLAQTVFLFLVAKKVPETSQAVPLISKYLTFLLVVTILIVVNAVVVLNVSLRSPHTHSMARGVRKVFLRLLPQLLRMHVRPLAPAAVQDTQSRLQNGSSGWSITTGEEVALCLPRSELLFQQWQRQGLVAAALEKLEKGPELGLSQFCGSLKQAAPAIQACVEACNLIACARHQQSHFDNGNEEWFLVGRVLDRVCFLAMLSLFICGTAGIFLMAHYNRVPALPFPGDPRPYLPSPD
Target sequence in this assay (P11230 24-501, further chain): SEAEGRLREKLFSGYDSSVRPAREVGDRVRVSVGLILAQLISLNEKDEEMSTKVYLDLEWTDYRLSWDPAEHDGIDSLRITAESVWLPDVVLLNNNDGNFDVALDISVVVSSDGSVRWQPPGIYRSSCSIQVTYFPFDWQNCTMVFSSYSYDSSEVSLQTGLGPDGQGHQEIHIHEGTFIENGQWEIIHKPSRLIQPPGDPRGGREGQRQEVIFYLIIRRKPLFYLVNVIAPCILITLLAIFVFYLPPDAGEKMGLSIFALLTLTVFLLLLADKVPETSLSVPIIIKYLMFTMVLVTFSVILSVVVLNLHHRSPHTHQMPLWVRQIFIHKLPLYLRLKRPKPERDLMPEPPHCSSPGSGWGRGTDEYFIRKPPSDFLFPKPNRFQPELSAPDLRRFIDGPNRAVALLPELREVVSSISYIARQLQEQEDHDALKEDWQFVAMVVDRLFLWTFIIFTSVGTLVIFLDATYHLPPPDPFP
For data set [4], the system named is TE671 cells. On the procedure:
To evaluate the toxicity of Spep-1 and Spep-2, WST Assay was performed on TE671 cells.

Data set [5] concerns BALB/c mice. Type of data set: in vivo. The method, then:
Specifically, the DAS values for Palmitoyl-L3-37 in Example 18 were evaluated. […]; and a group treated with a saline solution (sterilized 0.9% NaCl) or 70 μg/kg bungarotoxin as a control group. Then, palmitoyl-L3-37 and the saline solution or bungarotoxin at the concentrations as above were injected each 50 μl into the hind thigh muscles of mice. Thereafter, the mice weight and the sole of the injected portion were observed and recorded every day, and the results are shown in FIGS. 37 to 39.

Where [6] appears, read: ELISA of selected 14-mer (L3) peptide phages on AchR, Spep-2 positive control.
The mark [7] stands for this setting: ELISA of selected 11-mer (L2) peptide phages on AchR, Spep-2 positive control.

We go through eight molecules from US20260000597A1 (priority 2018, published 2026).

As usually defined, the IC50 is the concentration needed to halve the response being measured.

Like-named read-outs stand apart in the source and are kept apart here. Non-standard residues stand in square brackets, D forms with d. Residues, ends and D or L forms follow the SMILES beside them. No end group written: not given here. *: point of attachment. Palmitoyl = CCCCCCCCCCCCCCCC(=O)*; Dab = NCC[C@H](N)C(=O)O; NHBn = c1ccc(CN*)cc1; βAla = NCCC(=O)O

Acetylcholine receptor proteins (AchR), sequence (P02708 21-457): as the sequence (P02708 21-457) above

Regarding “L3-28: 14-mer optimized peptide of the L3 library (Table 12, not shown here) (PNGKVRKRIRRRYF; AchR binding peptide) [Peptide L3-28]”, the “AchR binding affinity (resonance units: Ru) among representative peptides” value in data set [1] (SPR) is reported as “highest binding affinity”. The molecule also returned an OD in data set [2] (setting [6]) of 0.803. Besides, the AchR inhibition result in data set [3] (nicotine 400 μM, peptide 2.5 μM) is reported as “could not inhibit”.

WTWKGKGTLNR [Spep-1, WTWKGKGTLNR]: in data set [4], the “toxicity (WST assay)” value is recorded as “no toxicity”.

Consider WTWKGRKSLLR [Spep-2, WTWKGRKSLLR], for which the AchR binding affinity result in data set [1] (SPR, 10 μM peptides, compared with Synake) is “high AchR binding affinity compared with Synake”. In addition, the “AchR binding affinity superior to that of Synake” value in data set [1] (from Kd values) is given as “about 2,000 times”. Besides, the “toxicity (WST assay)” value in data set [4] is “no toxicity”. Further, the OD turned out to be 0.303 in data set [2] (setting [7]); 0.303 in data set [2] (setting [6]); 0.303 in data set [2] (phage ELISA, 5 μg/ml AchR, 4th and 5th round biopanning phages). In data set [3], this molecule had an IC50 of 750 nM. The AchR inhibitory effect in data set [3] (peptide 0.5 μM, TE671 cells) came to 90%; in data set [3] (peptide 5 μM, TE671 cells), 100%. In data set [3] (nicotine 400 μM, peptide 20 μM, TE671 cells), the AchR inhibitory rate entry is reported as “about 10%”. Moreover, the AchR inhibition result is given as “could not inhibit” in data set [3] (nicotine 400 μM, peptide 70 μM) and 100% in data set [3] (nicotine 400 μM, peptide 80 μM). In data set [3] (nicotine treatment, compared with Synake, TE671 cells), the “nicotinic acetylcholine receptor inhibitory effects” value is recorded as “excellent nicotinic acetylcholine receptor inhibitory effects”.

With `CCCCCCCCCCCCCCCC(=O)N[C@@H](Cc1c[nH]c2ccccc12)C(=O)N[C@H](C(=O)N[C@@H](Cc1c[nH]c2ccccc12)C(=O)N[C@@H](CCCCN)C(=O)NCC(=O)N[C@@H](CCCNC(=N)N)C(=O)N[C@@H](CCCCN)C(=O)N[C@@H](CO)C(=O)N[C@@H](CC(C)C)C(=O)N[C@@H](CC(C)C)C(=O)N[C@@H](CCCNC(=N)N)C(=O)O)[C@@H](C)O` [Palmitoyl-Spep-2] (Palmitoyl-WTWKGRKSLLR-OH), the “cytotoxicity (WST assay)” value in data set [4] is given as “no cytotoxicity”.

In the case of `CCCCCCCCCCCCCCCC(=O)N[C@@H](CO)C(=O)N[C@@H](CC(N)=O)C(=O)N[C@H](C(=O)N[C@@H](CCCCN)C(=O)N[C@@H](CCCNC(=N)N)C(=O)N[C@@H](CCCCN)C(=O)N[C@@H](CCCNC(=N)N)C(=O)NCC(=O)N[C@@H](CCCNC(=N)N)C(=O)N[C@@H](CS)C(=O)N[C@@H](CCCCN)C(=O)N1CCC[C@H]1C(=O)N[C@@H](Cc1ccc(O)cc1)C(=O)N[C@@H](CCCNC(=N)N)C(=O)O)C(C)C` [Palmitoyl-L3-37] (Palmitoyl-SNVKRKRGRCKPYR-OH), the weight of mice entry in data set [5] (all groups, 7 days after administration) is recorded as “gradually increased”. Also, the acute toxicity result in data set [5] (up to 25 mg/kg IM, 7 days) is “no toxicity was observed”.

For the molecule “L3-27: 14-mer optimized peptide of the L3 library (Table 12, not shown here) (RARKKRKSLLRRQV; AchR binding peptide) [Peptide L3-27]”, the “AchR binding affinity (resonance units: Ru) among representative peptides” value in data set [1] (SPR) is “highest binding affinity”. In data set [2] (setting [6]), this molecule returned an OD of 0.83. The AchR inhibition is 50% in data set [3] (nicotine 400 μM, peptide 1 μM) and “could not inhibit” in data set [3] (nicotine 400 μM, peptide 5 μM).

As for `NCCC(=O)N1CCC[C@H]1C(=O)N[C@@H](CCN)C(=O)NCc1ccccc1` [Synake, reference compound] (H-[βAla]-Pro-[Dab]-NHBn; N-terminus and C-terminus assumed), the “toxicity (WST assay)” value in data set [4] (TE671 cells, treatment concentration of 100 μM) is “no toxicity”.

For “L2-110: 11-mer optimized peptide of the L2 library (Table 11, not shown here) (RYAKHRKRQTR; AchR binding peptide) [Peptide L2-110]”, in data set [1] (SPR), the “AchR binding affinity (resonance units: Ru) among representative peptides” value is “higher binding affinity to AchR compared with the 8-mer L1-13”. In data set [2] (setting [7]), the OD came to 0.831. For the same molecule, the AchR inhibition result in data set [3] (nicotine 400 μM, peptide 5 μM) is recorded as “could not inhibit”.
